The conditions of data set [1]: approved oral dose range; cited from earlier work.
Data set [2] has as its system patient with rheumatoid arthritis. Kind of data set: rheumatoid arthritis signs or symptoms. The following applies: 300 mg/kg per day. In kind it is in vivo, human. The method, then:
Another effect of anti-herpes drugs was elimination of the signs or symptoms of rheumatoid arthritis. A patient experienced 100% reduction in joint swelling, pain, inflammation and clicks at 300 mg/kg of famciclovir per day.

Data set [3] concerns patient with aseptic meningitis. Kind of data set: treatment of aseptic meningioencephalitis / aseptic meningitis. In kind it is in vivo, human. The source says:
The inventor thought that the cause of the AME was the patient's herpes infection that had spread internally to the brain and meninges. […] Because the product inserts for the anti-viral products on the market ([…]®) all warned against using increased doses of the product because of the fear of further renal damage, there was reason not to use increased doses beyond those of '114. […] A patient weighing about 100 kg having multiple signs or symptoms of autoimmune disease had been ingesting famciclovir for several years at about 10 g per day taken 4 times daily during a 24 hour period. While the subject's condition was tolerable, they were in a regular state of pain in the joints and had other signs or symptoms discussed below. They experienced significant headache pain, which was diagnosed as aseptic meningitis, which was discovered to be treatable initially using 340 mg of famciclovir per kg body weight. […] The inflammation and pain are therefore thought to be caused by the immune attack on the infected tissues. Within hours of taking the high doses of famciclovir, the patient experienced at least 60% relief of the extremely painful and debilitating symptoms of meningitis. […] The Shalabi, et al. report is discouraging. According to the authors, the disease is self-resolving. Without a double-blind study, it was not possible to detect the contribution of acyclovir to the recovery.

Data set [4] deals with patients with autoimmune disease. Kind of data set: pain and signs or symptoms of autoimmune disease in general. The following applies: very high levels. In kind it is in vivo, human. The method, then: After the drugs take effect, usually in less than an hour, the pain is at least 50% reduced or disappears. This is a particularly surprising and useful discovery.
In the past, it was observed, that a patient that stopped increasing the dosage of the anti-herpes drugs at the threshold of pain rarely achieves the relief of the autoimmune signs or symptoms. Patients who exceed the pain threshold and take over 20 g per day (over 200 mg/kg/day) start experiencing a reduction in autoimmune symptoms for prolonged periods of time. The pain in such patients eventually disappears. Patients who take even higher doses, 30 g per day for a 100 kg subject (300 mg/kg) and higher, experience a continuous relief of at least 90% of all of their autoimmune signs or symptoms, including pain, as long as they continue taking the drug.
Most importantly, the present invention teaches alleviation of pain associated with autoimmune disease. The prior art, including the '114 patent, teaches to use pain as guide when adjusting the maximum dose of the anti-herpes drug. However, it is now disclosed that a patient should tolerate the pain during the initial period of taking extremely high doses of anti-herpes drugs. After the drugs take effect, usually in less than an hour, the pain is at least 50% reduced or disappears. […]

For data set [5], the system named is patient with nose and brow acne and rosacea. Kind of data set: acne and rosacea. In kind it is in vivo, human. The settings on record: 300 mg/kg per day. As for the experimental part:
Additional symptoms relieved by the high doses of anti-herpes drugs involve severe nose and brow acne and rosacea on the chin and lower cheeks. Although the mechanism for these conditions is not understood, they are believed to be of autoimmune origin. Both skin conditions disappeared at 300 mg/kg of famciclovir per day and recurred when the drug was stopped.

Data set [6] relates to patient with cranial nerve palsy. Kind of data set: cranial nerve palsy (loss of control of soft palate) and loss of sympathetic nerve function. In kind it is in vivo, human. The text has this:
The loss of sympathetic nerve functions, can occur with a loss of control of some function of some autonomic muscles, or loss of sensation or both. This is not as common as 1 through 6, above. And, the effects are usually not as severe. One example is the loss of control of the soft palate, either partial or complete which can cause severe snoring, and is part of the sleep apnea syndrome, and also can cause a snorting sound when talking or laughing, or can cause food to get caught under the soft palate. Another condition is cranial nerve palsies as discussed in the Sixteenth Edition of the Merck Manual at page 2395. […] This new treatment effectively suppresses all of these conditions, and in at least one patient return of most lost function of the soft palate has occurred. In another there was significant return of anal sphincter tone with these doses which had been previously lost on the doses of '114.
A patient was experiencing the loss of control of the soft palate because it could not properly contract, a condition known as cranial nerve palsy. The condition causes snorting during talking and difficulty swallowing food. The food often lodges above the soft palate. These symptoms were 80% eliminated at 300 mg/kg of famciclovir per day.

Data set [7] has as its system patient with irritable bowel syndrome. Briefly: irritable bowel syndrome signs or symptoms. Type of data set: in vivo, human. The source says:
This example sets forth the treatment of a patient with signs or symptoms of disease associated with reduced blood flow to an organ or tissue (correlated with hypertonicity of the associated blood vessels) using high doses of famciclovir, a compound of Formula (II) where B is H and each of R1 and R2 is CH3C(O)—, at a level and under conditions as explained below.
A patient weighing about 100 kg having multiple signs or symptoms of autoimmune disease had been ingesting famciclovir for several years at about 10 g per day taken 4 times daily during a 24 hour period. While the subject's condition was tolerable, they were in a regular state of pain in the joints and had other signs or symptoms discussed below.
The patient also presented with irritable bowel syndrome (IBS) signs or symptoms, such as severe distention, cramps and pain spasms. After increasing intake of famciclovir to a maintenance level of 300 mg/kg per day, the patient experienced a dramatic improvement. […] The distended waist circumference was reduced from 44 inches to 38 inches over a period of days, and pain was about 90% relieved. Since the patient experienced no weight loss, the reduction in distention was due to the relief of bowel spasms.

Data set [8] concerns herpes-infected patient with kyphosis. Briefly: kyphosis. Type of data set: in vivo, human. The settings on record: 300 mg/kg per day. The method, then: Another condition observed in a herpes-infected patient was kyphosis or abnormal curvature of the upper spine. Generally, kyphosis is thought to result from habitual poor posture. However, kyphosis is sometimes caused by abnormal contraction of some spinal muscles. When the patient received 300 mg/kg of famciclovir per day, their posture improved as the contracted spinal muscles relaxed.

The conditions of data set [9]: body pH of 7.4; cited from earlier work.

Consider one compound from patent US20110105434A1, “2-AMINO PURINE DERIVATIVES AND THEIR USE AS ANTI-HERPETIC AGENTS” (priority 2007, published 2011).

The structures appear in SMILES notation.

With `CC(=O)OCC(CCn1cnc2cnc(N)nc21)COC(C)=O` [famciclovir, 2-amino-9-(4-acetoxy-3-acetoxymethylbut-1-yl)purine], the “absorption (dose linearity)” value in data set [1] is “linear”. The “reduction in joint swelling, pain, inflammation and clicks” value in data set [2] was 100%. Also, the “unremitting severe symptoms of aseptic meningitis” value in data set [3] (340 mg/kg per day, maintained at 300 mg/kg/day) was “quickly dispersed”. Also, in [3] (340 mg/kg, within hours of taking), the “relief of symptoms of meningitis” value is “at least 60%”. The “treating the AME” value in data set [3] (maximum dose of 120 mg/kg body weight as taught in '114) is “ineffective”. Further, the “acute pain and the AME” value in data set [3] (more than 250, e.g. 340 to 400 mg/kg/day) is on record as “completely stopped”. For the same compound, in [4], the “pain associated with autoimmune disease” value is given as “immediate relief”. The “skin conditions (acne, rosacea)” value in [5] is recorded as “disappeared”. Further, in data set [6] (300 mg/kg daily, over a six-month period), the “soft palate muscle strength” value is listed as “gradually returned”. The “cranial nerve palsy symptoms eliminated” value in data set [6] (300 mg/kg per day) is 80%. In data set [7] (300 mg/kg per day), the IBS pain relieved result is listed as “about 90%”. Moreover, the distended waist circumference in data set [7] (300 mg/kg per day, over a period of days, reduced from 44 inches) is listed as 38 inches. In addition, the IBS pain spasms entry in [7] (maintenance level of 300 mg/kg per day) is reported as “dramatically decreased”. Moreover, the posture in kyphosis result in data set [8] was “improved”. In addition, the “water solubility compared with other representative compounds such as acyclovir” value in data set [9] is reported as “more water soluble”.
